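Briefly, cells in 96-well plates were exposed to five compound concentrations for 48 h, and endpoints were estimated by linear interpolation. GI50 = concentration required for 50% inhibition of growth. The concentration for full growth arrest is given as TGI.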
System: NCI-H226 lung
Experiment: NCI tumour cell line growth inhibition, 48 h

Question: With `COc1ccc2c(c1OC)C(=O)OC2C1c2c(c([N+](=O)[O-])c3c(c2OC)OCO3)CCN1C` (centres undefined) as the compound, how does the GI50 read?
Answer: > 100 µM

Question: And the TGI?
Answer: > 100 µM

Question: For `COC1O[C@@H]2C[C@H]3C(C)(C)CCC[C@]3(C)C3=CCCC1[C@@]32C` (some centres undefined), which GI50 is on record?
Answer: > 100 µM

Question: What about the TGI of the same compound?
Answer: > 100 µM

System: NCI-H23 lung
Experiment: NCI tumour cell line growth inhibition, 48 h

Question: How did the GI50 turn out when `Nc1ccc(-c2nc3ccccc3[nH]2)c2ccccc12` was run?
Answer: 3.24 µM

Question: What about the TGI of the same compound?
Answer: > 30.3 µM

Question: How did the GI50 turn out when `COc1ccc2c(c1OC)C(=O)OC2C1c2c(c([N+](=O)[O-])c3c(c2OC)OCO3)CCN1C` (centres undefined) was run?
Answer: > 100 µM

Question: What about the TGI of the same compound?
Answer: > 100 µM

Question: `COC1O[C@@H]2C[C@H]3C(C)(C)CCC[C@]3(C)C3=CCCC1[C@@]32C` (some centres undefined) was tested. Which GI50 did it give?
Answer: > 100 µM

Question: What about the TGI of the same compound?
Answer: > 100 µM

System: NCI-H460 lung
Experiment: NCI tumour cell line growth inhibition, 48 h

Question: How did the TGI turn out when `COc1cc(C2C3=C(COC3=O)Oc3cc4c(cc32)OCO4)cc(OC)c1OC(C)=O` (centres undefined) was run?
Answer: > 100 µM

Question: Which GI50 does the source give for `Nc1ccc(-c2nc3ccccc3[nH]2)c2ccccc12` here?
Answer: 3.9 µM

Question: And the TGI?
Answer: > 100 µM

Question: What does the source list for `COc1ccc2c(c1OC)C(=O)OC2C1c2c(c([N+](=O)[O-])c3c(c2OC)OCO3)CCN1C` (centres undefined)?
Answer: GI50: > 100 µM; TGI: > 100 µM

Question: For `COC1O[C@@H]2C[C@H]3C(C)(C)CCC[C@]3(C)C3=CCCC1[C@@]32C` (some centres undefined), which GI50 is on record?
Answer: > 100 µM

Question: And the TGI?
Answer: > 100 µM

System: NCI-H522 lung
Experiment: NCI tumour cell line growth inhibition, 48 h

Question: Which TGI does the source give for `COc1cc(C2C3=C(COC3=O)Oc3cc4c(cc32)OCO4)cc(OC)c1OC(C)=O` (centres undefined) here?
Answer: > 100 µM

Question: With `Nc1ccc(-c2nc3ccccc3[nH]2)c2ccccc12` as the compound, how does the GI50 read?
Answer: 3.14 µM

Question: What about the TGI of the same compound?
Answer: 17.1 µM

Question: How did the GI50 turn out when `COc1ccc2c(c1OC)C(=O)OC2C1c2c(c([N+](=O)[O-])c3c(c2OC)OCO3)CCN1C` (centres undefined) was run?
Answer: > 100 µM

Question: And the TGI?
Answer: > 100 µM

Question: `COC1O[C@@H]2C[C@H]3C(C)(C)CCC[C@]3(C)C3=CCCC1[C@@]32C` (some centres undefined) was tested. Which GI50 did it give?
Answer: > 100 µM

Question: What about the TGI of the same compound?
Answer: > 100 µM

System: NCI/ADR-RES ovarian
Experiment: NCI tumour cell line growth inhibition, 48 h

Question: What does the source list for `Nc1ccc(-c2nc3ccccc3[nH]2)c2ccccc12`?
Answer: GI50: 2.08 µM; TGI: 7.37 µM

Question: How did the GI50 turn out when `COc1ccc2c(c1OC)C(=O)OC2C1c2c(c([N+](=O)[O-])c3c(c2OC)OCO3)CCN1C` (centres undefined) was run?
Answer: > 100 µM

Question: What about the TGI of the same compound?
Answer: > 100 µM

System: OVCAR-3 ovarian
Experiment: NCI tumour cell line growth inhibition, 48 h

Question: How did the TGI turn out when `COc1cc(C2C3=C(COC3=O)Oc3cc4c(cc32)OCO4)cc(OC)c1OC(C)=O` (centres undefined) was run?
Answer: > 100 µM

Question: Which results are given for `Nc1ccc(-c2nc3ccccc3[nH]2)c2ccccc12`?
Answer: GI50: 2.5 µM; TGI: > 41.4 µM

Question: With `COc1ccc2c(c1OC)C(=O)OC2C1c2c(c([N+](=O)[O-])c3c(c2OC)OCO3)CCN1C` (centres undefined) as the compound, how does the GI50 read?
Answer: > 100 µM

Question: And the TGI?
Answer: > 100 µM

Question: With `COC1O[C@@H]2C[C@H]3C(C)(C)CCC[C@]3(C)C3=CCCC1[C@@]32C` (some centres undefined) as the compound, how does the GI50 read?
Answer: > 100 µM

Question: And the TGI?
Answer: > 100 µM

System: OVCAR-4 ovarian
Experiment: NCI tumour cell line growth inhibition, 48 h

Question: Which TGI does the source give for `COc1cc(C2C3=C(COC3=O)Oc3cc4c(cc32)OCO4)cc(OC)c1OC(C)=O` (centres undefined) here?
Answer: > 100 µM

Question: Which results are given for `Nc1ccc(-c2nc3ccccc3[nH]2)c2ccccc12`?
Answer: GI50: 8.26 µM; TGI: > 72.5 µM

Question: How did the GI50 turn out when `COc1ccc2c(c1OC)C(=O)OC2C1c2c(c([N+](=O)[O-])c3c(c2OC)OCO3)CCN1C` (centres undefined) was run?
Answer: > 100 µM

Question: What about the TGI of the same compound?
Answer: > 100 µM

Question: For `COC1O[C@@H]2C[C@H]3C(C)(C)CCC[C@]3(C)C3=CCCC1[C@@]32C` (some centres undefined), which GI50 is on record?
Answer: > 100 µM

Question: What about the TGI of the same compound?
Answer: > 100 µM

System: OVCAR-5 ovarian
Experiment: NCI tumour cell line growth inhibition, 48 h

Question: What does the source list for `Nc1ccc(-c2nc3ccccc3[nH]2)c2ccccc12`?
Answer: GI50: 6.08 µM; TGI: > 53.5 µM

Question: What does the source list for `COc1ccc2c(c1OC)C(=O)OC2C1c2c(c([N+](=O)[O-])c3c(c2OC)OCO3)CCN1C` (centres undefined)?
Answer: GI50: > 100 µM; TGI: > 100 µM

Question: With `OC(c1cc2cc(Cl)c(Cl)cc2c2cc(C(F)(F)F)ccc12)C1CCCCN1` (centres undefined) as the compound, how does the GI50 read?
Answer: 1.61 µM

Question: What about the TGI of the same compound?
Answer: 3.1 µM

Question: For `COC1O[C@@H]2C[C@H]3C(C)(C)CCC[C@]3(C)C3=CCCC1[C@@]32C` (some centres undefined), which GI50 is on record?
Answer: > 100 µM

Question: And the TGI?
Answer: > 100 µM

System: OVCAR-8 ovarian
Experiment: NCI tumour cell line growth inhibition, 48 h

Question: Which TGI does the source give for `COc1cc(C2C3=C(COC3=O)Oc3cc4c(cc32)OCO4)cc(OC)c1OC(C)=O` (centres undefined) here?
Answer: > 100 µM

Question: What does the source list for `Nc1ccc(-c2nc3ccccc3[nH]2)c2ccccc12`?
Answer: GI50: 5.2 µM; TGI: 65.1 µM

Question: With `COc1ccc2c(c1OC)C(=O)OC2C1c2c(c([N+](=O)[O-])c3c(c2OC)OCO3)CCN1C` (centres undefined) as the compound, how does the GI50 read?
Answer: > 100 µM

Question: What about the TGI of the same compound?
Answer: > 100 µM

Question: What does the source list for `OC(c1cc2cc(Cl)c(Cl)cc2c2cc(C(F)(F)F)ccc12)C1CCCCN1` (centres undefined)?
Answer: GI50: 1.67 µM; TGI: 3.21 µM

Question: What does the source list for `COC1O[C@@H]2C[C@H]3C(C)(C)CCC[C@]3(C)C3=CCCC1[C@@]32C` (some centres undefined)?
Answer: GI50: > 100 µM; TGI: > 100 µM

System: PC-3 prostate
Experiment: NCI tumour cell line growth inhibition, 48 h

Question: What does the source list for `Nc1ccc(-c2nc3ccccc3[nH]2)c2ccccc12`?
Answer: GI50: 6.49 µM; TGI: > 100 µM

Question: Which results are given for `COC1O[C@@H]2C[C@H]3C(C)(C)CCC[C@]3(C)C3=CCCC1[C@@]32C` (some centres undefined)?
Answer: GI50: 0.515 µM; TGI: > 100 µM

System: RPMI-8226 leukemia
Experiment: NCI tumour cell line growth inhibition, 48 h

Question: `COc1cc(C2C3=C(COC3=O)Oc3cc4c(cc32)OCO4)cc(OC)c1OC(C)=O` (centres undefined) was tested. Which TGI did it give?
Answer: > 100 µM

Question: For `Nc1ccc(-c2nc3ccccc3[nH]2)c2ccccc12`, which GI50 is on record?
Answer: 2.64 µM

Question: What about the TGI of the same compound?
Answer: > 37 µM

Question: For `COC1O[C@@H]2C[C@H]3C(C)(C)CCC[C@]3(C)C3=CCCC1[C@@]32C` (some centres undefined), which GI50 is on record?
Answer: > 100 µM

Question: What about the TGI of the same compound?
Answer: > 100 µM

System: RXF 393 renal
Experiment: NCI tumour cell line growth inhibition, 48 h

Question: Which results are given for `Nc1ccc(-c2nc3ccccc3[nH]2)c2ccccc12`?
Answer: GI50: 1.83 µM; TGI: 12.2 µM

Question: With `COc1ccc2c(c1OC)C(=O)OC2C1c2c(c([N+](=O)[O-])c3c(c2OC)OCO3)CCN1C` (centres undefined) as the compound, how does the GI50 read?
Answer: > 100 µM

Question: What about the TGI of the same compound?
Answer: > 100 µM

Question: With `COC1O[C@@H]2C[C@H]3C(C)(C)CCC[C@]3(C)C3=CCCC1[C@@]32C` (some centres undefined) as the compound, how does the GI50 read?
Answer: > 100 µM

Question: And the TGI?
Answer: > 100 µM

System: SF-268 CNS
Experiment: NCI tumour cell line growth inhibition, 48 h

Question: How did the TGI turn out when `COc1cc(C2C3=C(COC3=O)Oc3cc4c(cc32)OCO4)cc(OC)c1OC(C)=O` (centres undefined) was run?
Answer: > 100 µM

Question: What does the source list for `Nc1ccc(-c2nc3ccccc3[nH]2)c2ccccc12`?
Answer: GI50: 5.93 µM; TGI: > 100 µM

Question: Which GI50 does the source give for `COc1ccc2c(c1OC)C(=O)OC2C1c2c(c([N+](=O)[O-])c3c(c2OC)OCO3)CCN1C` (centres undefined) here?
Answer: > 100 µM

Question: What about the TGI of the same compound?
Answer: > 100 µM

Question: `COC1O[C@@H]2C[C@H]3C(C)(C)CCC[C@]3(C)C3=CCCC1[C@@]32C` (some centres undefined) was tested. Which GI50 did it give?
Answer: > 100 µM

Question: What about the TGI of the same compound?
Answer: > 100 µM

System: SF-295 CNS
Experiment: NCI tumour cell line growth inhibition, 48 h

Question: How did the GI50 turn out when `Nc1ccc(-c2nc3ccccc3[nH]2)c2ccccc12` was run?
Answer: 1.56 µM

Question: What about the TGI of the same compound?
Answer: > 28.9 µM

Question: With `COc1ccc2c(c1OC)C(=O)OC2C1c2c(c([N+](=O)[O-])c3c(c2OC)OCO3)CCN1C` (centres undefined) as the compound, how does the GI50 read?
Answer: > 100 µM

Question: What about the TGI of the same compound?
Answer: > 100 µM

Question: How did the GI50 turn out when `COC1O[C@@H]2C[C@H]3C(C)(C)CCC[C@]3(C)C3=CCCC1[C@@]32C` (some centres undefined) was run?
Answer: > 100 µM

Question: And the TGI?
Answer: > 100 µM

System: SF-539 CNS
Experiment: NCI tumour cell line growth inhibition, 48 h

Question: Which GI50 does the source give for `Nc1ccc(-c2nc3ccccc3[nH]2)c2ccccc12` here?
Answer: 3.11 µM

Question: And the TGI?
Answer: 17 µM

Question: How did the GI50 turn out when `COc1ccc2c(c1OC)C(=O)OC2C1c2c(c([N+](=O)[O-])c3c(c2OC)OCO3)CCN1C` (centres undefined) was run?
Answer: > 100 µM

Question: And the TGI?
Answer: > 100 µM

Question: `COC1O[C@@H]2C[C@H]3C(C)(C)CCC[C@]3(C)C3=CCCC1[C@@]32C` (some centres undefined) was tested. Which GI50 did it give?
Answer: > 100 µM

Question: And the TGI?
Answer: > 100 µM

System: SK-MEL-2 melanoma
Experiment: NCI tumour cell line growth inhibition, 48 h

Question: `COc1cc(C2C3=C(COC3=O)Oc3cc4c(cc32)OCO4)cc(OC)c1OC(C)=O` (centres undefined) was tested. Which TGI did it give?
Answer: > 100 µM

Reference: PubChem BioAssay (NCI)
